Reference: patent US4015974A, “Amido phosphorothiolates” (priority 1972, dated 1977)

Legend:
Format in all cases: in vivo
[1] = tested on: barnyard grass (Echinochloa crus-galli); assay: Pre-emergence application, herbicidal effect on barnyard grass (Table 1); set-up: key: 0: not damaged; 5: completely killed; settings: 20 days after application, score 0-5
Outline: (§1)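 Scores run from 0 (undamaged) to 5 (fully killed), read 20 days post-treatment. Compounds were applied as water-diluted wettable powders to soil over freshly covered seeds in ~10 cm pots, with plants kept in a greenhouse.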

[2] = tested on: large crabgrass (Digitaria sanguinalis); assay: Pre-emergence application, herbicidal effect on large crabgrass (Table 1); set-up: key: 0: not damaged; 5: completely killed; settings: 20 days after application, score 0-5
Outline: as §1

radish = assay: Pre-emergence application, herbicidal effect on radish (Table 1); set-up: key: 0: not damaged; 5: completely killed; settings: 20 days after application, score 0-5
Outline: as §1

[3] = tested on: redroot pigweed (Amaranthus retroflexus); assay: Pre-emergence application, herbicidal effect on redroot pigweed (Table 1); set-up: key: 0: not damaged; 5: completely killed; settings: 20 days after application, score 0-5
Outline: as §1

[4] = tested on: common purslane (Portulaca oleracea); assay: Pre-emergence application, herbicidal effect on common purslane (Table 1); set-up: key: 0: not damaged; 5: completely killed; settings: 20 days after application, score 0-5
Outline: as §1

[5] = tested on: common lambsquarter (Chenopodium album); assay: Pre-emergence application, herbicidal effect on common lambsquarter (Table 1); set-up: key: 0: not damaged; 5: completely killed; settings: 20 days after application, score 0-5
Outline: as §1

rice = assay: Water application, phytotoxicity on rice (Table 2); set-up: key: 0: no effect; 1: very slightly affected; 2: slightly affected; 3: moderately affected; 4: considerably affected; 5: completely killed; settings: 25 days, score 0-5
Outline: (§2)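 Scores (0–5) taken 25 days post-treatment. Wettable-powder formulations were applied into standing water over paddy soil holding 3-leaf-stage transplanted rice, sown Echinochloa and naturally emerging monochoria, false pimpernel and toothcup.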

nematode = assay: Effect on nematode (Table 7); set-up: tested at 500 ppm; settings: 500 p.p.m., 24 hours
Experimental: 0.5 ml. of a nematode-containing aqueous solution separated from food according to Baermann's method was placed in a test tube with ground stopper containing 0.5 ml. of an aqueous dilute solution of each emulsifiable concentrates of the present compounds. The concentration of the active ingredient in the mixture was adjusted to 500 p.p.m. After 24 hours, the death and alive were observed microscopically to calculate the mortality.

[6] = tested on: barnyard grass (Echinochloa crus-galli); assay: Water application, herbicidal effect on barnyard grass (Table 2); set-up: key: 0: not damaged; 5: completely killed; settings: 25 days, score 0-5
Outline: as §2

[7] = tested on: broad-leaved weeds, e.g., monochoria, false pimpernel and toothcup; assay: Water application, herbicidal effect on broad-leaved weeds (Table 2); set-up: key: 0: not damaged; 5: completely killed; settings: 25 days, score 0-5
Outline: as §2

[8] = tested on: broad-leaved weeds, e.g., monochoria, false pimpernel and toothcup; assay: as above; set-up: key: 0: no effect; 1: very slightly affected; 2: slightly affected; 3: moderately affected; 4: considerably affected; 5: completely killed; settings: 10 g/a, 25 days, score 0-5
Excerpt: Wagner pots of 14 cm. in diameter, which had been packed with 1.5 kg. of paddy field soil, were brought into the state of paddy fields. To the pots were transplanted rice seedlings at the 3-leave stage. Further, seeds of barnyard grass (Echinochloa crus-galli) were sowed in the pots and required amounts of test compounds were applied to the soil under water lodged condition. 25 days after application, the degrees of herbicidal activity and phytotoxity were investigated on above-mentioned plants which had been transplanted and sowed, and on broad-leaved weeds, e.g., monochoria (Monochoria viaginalis Presl.), false pimpernel (Linderna pyxidaria) and toothcup (Rotala indica Koehue), which had been spontaneously germinated. The test compounds were used in the form of wettable powder. The herbicidal effects and the phytotoxity were evaluated as follows by the numerals ranging from 0 to 5.

Compound	Herbicidal effect, barnyard grass ([1]; 10 g./a.)	Herbicidal effect, barnyard grass ([1]; 20 g./a.)	Herbicidal effect, barnyard grass ([1]; 40 g./a.)	Herbicidal effect, large crabgrass ([2]; 10 g./a.)	Herbicidal effect, large crabgrass ([2]; 20 g./a.)	Herbicidal effect, large crabgrass ([2]; 40 g./a.)	Herbicidal effect, radish (radish; 10 g./a.)	Herbicidal effect, radish (radish; 20 g./a.)	Herbicidal effect, radish (radish; 40 g./a.)	Herbicidal effect, redroot pigweed ([3]; 10 g./a.)	Herbicidal effect, redroot pigweed ([3]; 20 g./a.)	Herbicidal effect, redroot pigweed ([3]; 40 g./a.)	Herbicidal effect, common purslane ([4]; 10 g./a.)	Herbicidal effect, common purslane ([4]; 20 g./a.)	Herbicidal effect, common purslane ([4]; 40 g./a.)	Herbicidal effect, common lambsquarter ([5]; 10 g./a.)	Herbicidal effect, common lambsquarter ([5]; 20 g./a.)	Herbicidal effect, common lambsquarter ([5]; 40 g./a.)	Phytotoxicity on rice (rice; 10 g/a)	Phytotoxicity on rice (rice; 20 g/a)	other results
CCCSP(=O)(OCC)SCC(=O)N1CCC(C)CC1 (centres unmarked) [Compound 12]	5	5	5	5	5	5	0	0	0	4	5	5	5	5	5	5	5	5	0	0	Phytotoxicity on rice (rice; 40 g/a): 0; Mortality (nematode): 100%; Herbicidal effects, barnyard grass ([6]; 10 g/a): 5; Herbicidal effects, barnyard grass ([6]; 20 g/a): 5; Herbicidal effects, barnyard grass ([6]; 40 g/a): 5; Herbicidal effects, broad-leaved weeds ([7]; 10 g/a): 5; Herbicidal effects, broad-leaved weeds ([7]; 20 g/a): 5; Herbicidal effects, broad-leaved weeds ([7]; 40 g/a): 5
CCCOP(=O)(SCCc1ccccc1)SCC(=O)N1CCCCC1CC (centres unmarked) [Compound 19]	4	4	5	4	4	5	0	0	0	4	4	4	4	4	4	3	4	4	0	0	Phytotoxicity on rice (rice; 40 g/a): 0; Herbicidal effects, barnyard grass ([6]; 10 g/a): 5; Herbicidal effects, barnyard grass ([6]; 20 g/a): 5; Herbicidal effects, barnyard grass ([6]; 40 g/a): 5; Herbicidal effects, broad-leaved weeds ([7]; 20 g/a): 5; Herbicidal effects, broad-leaved weeds ([7]; 40 g/a): 5; Herbicidal effects, broad-leaved weeds [8]: 4
CCOP(=O)(SCC(=O)N1CCCCC1C)SCc1ccc(C)cc1 (centres unmarked) [Compound 52]	5	5	5	5	5	5	0	0	0	4	4	5	3	4	5	3	4	5	0	0	Phytotoxicity on rice (rice; 40 g/a): 0; Mortality (nematode): 85.7%; Herbicidal effects, barnyard grass ([6]; 10 g/a): 5; Herbicidal effects, barnyard grass ([6]; 20 g/a): 5; Herbicidal effects, barnyard grass ([6]; 40 g/a): 5; Herbicidal effects, broad-leaved weeds ([7]; 10 g/a): 5; Herbicidal effects, broad-leaved weeds ([7]; 20 g/a): 5; Herbicidal effects, broad-leaved weeds ([7]; 40 g/a): 5
